Laboratory results from PMC6426897, “Inhibition of NLRP3 inflammasome activation by cell-permeable stapled peptides” (Scientific Reports, 2019).
Where a SMILES comes first, the peptide text is derived from it. Bridges are numbered along the chain shown (N, C = ends). [ ]: non-standard residue; d: D form. R8 = C=CCCCCCC[C@@](C)(N)C(=O)O; S5 = C=CCCC[C@](C)(N)C(=O)O

Experiments:
[1] = system: NLRP3 inflammasome; test: IL-1β release from THP-1 cells stimulated with LPS and nigericin (ELISA); format: cell-based, human; conditions: 10, 50 and 100 μM peptide for 4 hours, then LPS 4 hours, nigericin 1 hour; Fig. 6
Description: We next examined whether the ASC peptides could inhibit IL-1β production, which is regulated by the inflammasome. We used THP-1 human monocytic cells to study inflammasome activation as they express high levels of NLRP3, ASC, and pro-casp-1. THP-1 cells were incubated with ms_ASC^PYD #1–6 or ms_NLRP3^PYD peptides at increasing concentrations for 4 hours and were then stimulated with LPS for 4 hours, followed by the NLRP3 activator nigericin for 1 hour. IL-1β levels were measured in the culture supernatant. […] The ms_ASC^PYD peptides reduced IL-1β production from THP-1 cells in response to LPS/nigericin stimulation to variable degrees (Fig. 6A). […] We decided to continue investigating in detail the inhibitory effects of ms_ASC^PYD #5 and #6 peptides, as their estimated binding energies matched well with the experimental data of suppression of ASC-dependent IL-1 release in a dose-dependent manner. Since ms_ASCPYD #6 is the shorter version of ms_ASCPYD #5, this selection also enabled us to verify the effect of varying peptide lengths.
Human monocytic THP-1 cells (1 × 10^7 cells) were plated in a 10-cm tissue culture dish and treated with PMA (200 nM) overnight to differentiate monocytic cells into macrophages. Cells were then washed and allowed to rest in fresh media for another day. For stimulation, differentiated THP-1 cells were trypsinized and seeded in 96-well plates (2 × 10^6/well). Peripheral blood mononuclear cells were isolated by Ficoll-Hypaque density gradient centrifugation from buffy coats obtained from anonymous donors provided by the National University Hospital Blood Bank, Singapore. Isolation of monocytes was performed using negative selection with the Monocyte Isolation Kit II (Miltenyi Biotech), following the manufacturer’s instructions. Monocytes were plated in tissue culture non-treated 96-well plates (2.5 × 10^5/well) in 250 µl RPMI 1640-Glutamax media supplemented with 3% human AB serum (Gemini Bio Products).
THP-1 cells and monocytes were incubated with NLRP3^PYD (12.5–25–50 μM), ASC^PYD #5 (12.5-25-50-100 μM) or ASC^PYD #6 (12.5-25-50-100 μM) for the indicated durations. Cells were then washed once with PBS and primed with E. coli LPS (0.1 μg/ml, Invivogen) for 4 h followed by stimulation with nigericin (10 μM) for an additional 1 h or ATP ([…]) for an additional 30 min. The cell culture supernatants were then collected and centrifuged at 500 × g to remove cells and cellular debris.
IL-1β levels were measured using antibodies from eBioscience (cat. #14-7018-81 and #13-7016-85), following the manufacturer’s instructions. IL-18 levels were measured using antibodies from MBL (D044-3 and D045-6) following the manufacturer’s instructions. The absorbance was measured at 450 nm with the reference wavelength at 570 nm, using an M200 Infinite plate reader (Tecan).

[2] = Circular dichroism, percentage of helicity (K2D3); format: physicochemical; conditions: CD, room temperature, water, 100 μM peptide; estimated with K2D3
Text: The conformation of helix 2 (^16TAEELKKFKLKLLSV^30) bound to ASC^PYD (Fig. 1A) was used as the starting structure for the peptide-protein interaction modeling. Following I,I + 7 stapling scheme, we inserted a hydrocarbon staple across positions 5 and 12 along the peptide and then introduced mutations to produce a set of stapled peptides. Two variants of the template peptide were designed – a short version containing 13 residues (ms_ASC^PYD #6) and a long version containing 15 residues (ms_ASC^PYD #1–5) with two additional residues at the N-terminus (Table 1). These two additional residues were inserted to increase the length of the peptide, thus potentially enabling sufficient conformational flexibility for the region involving the critical Arg3 to remain helical. A similar approach was taken to introduce the staple in the ms_NLRP3^PYD peptide. As determined from Circular Dichroism (CD) spectra, inserting the I,I + 7 staple had the intended effect of increasing helicity of the peptides (Fig. 3). […] Percentage of helicity was much higher for ASC^PYD stapled peptides #5 and #6, 95% and 70% respectively at 100 μM peptide concentration. Percentage of helicity for the peptides were estimated from the web server K2D3[36] using CD data.
Figure 3 Circular dichroism (CD) spectra of (A) NLRP3^PYD and (B) ASC^PYD peptides to measure secondary structures.

[3] = target: ASC PYD (Homo sapiens) (UniProt Q9ULZ3); test: NMR titration; conditions: cited from earlier work

## CC(=O)N[C@H](C(=O)N[C@@H](C)C(=O)N[C@@H](CCCNC(=N)N)C(=O)N[C@@H](CCC(=O)O)C(=O)N[C@]1(C)CCCCCCC=CCCC[C@@](C)(C(=O)N[C@@H](CCC(=O)O)C(=O)N[C@@H](CO)C(=O)N[C@H](C(N)=O)C(C)C)NC(=O)[C@H](CCCCN)NC(=O)[C@H](Cc2ccccc2)NC(=O)[C@H](CCCCN)NC(=O)[C@H](C)NC(=O)[C@H](CCCCN)NC(=O)[C@H](CCCCN)NC1=O)[C@@H](C)O [ms_ASC^PYD #2] (Ac-TARE[R8]KKAKFK[S5]ESV-NH2; staple 5-12)
[1]
  IL-1β release (in words): inability to suppress IL-1β release

## CC(=O)N[C@H](C(=O)N[C@@H](CC(=O)O)C(=O)N[C@]1(C)CCCCCCC=CCCC[C@@](C)(C(=O)N[C@@H](CCC(=O)O)C(=O)N[C@@H](CC(=O)O)C(=O)N[C@@H](Cc2ccc(O)cc2)C(N)=O)NC(=O)[C@H](Cc2c[nH]cn2)NC(=O)[C@H](Cc2ccccc2)NC(=O)[C@H](CCCCN)NC(=O)[C@H](C)NC(=O)[C@H](CCCCN)NC(=O)[C@H](CCCCN)NC1=O)C(C)C [ms_NLRP3^PYD] (Ac-VD[R8]KKAKFH[S5]EDY-NH2; staple 3-10)
[1]
  IL-1β release (in words): produced less IL-1β in a dose-dependent manner
[2]
  Percentage of helicity: 48%

## ASC PYD (from UniProt Q9ULZ3)
[3]
  Kd: 65 µM

## Ac-VDLKKFKMHLEDY-NH2 [wt_NLRP3^PYD]
[2]
  Percentage of helicity: no helicity
